Test [1] has as its target Apoptosis regulator Bcl-2 (Homo sapiens, UniProt P10415). Nature of the test: Displacement of Bax-derived peptide from Bcl-2 (unknown origin) by fluorescence polarization assay. A general note: Polarisation of emitted light reports the rotation of a fluorescent probe.
A further test addresses Bcl-2-like protein 1 (Homo sapiens, UniProt Q07817). Description: Displacement of Bad-derived peptide from Bcl-XL (unknown origin) by fluorescence polarization assay.
The species entered for another test is Homo sapiens. Description: Selectivity factor, ratio of IC50 for Bad-derived peptide from Bcl-XL (unknown origin) to IC50 for displacement of Bax-derived peptide from Bcl-2 (unknown origin).

The record followed here is ChEMBL document CHEMBL4177735, “Design, synthesis and pharmacological evaluation of new acyl sulfonamides as potent and selective Bcl-2 inhibitors” (Bioorg Med Chem, 2018).

Bcl-2-like protein 1, sequence (Q07817 whole entry): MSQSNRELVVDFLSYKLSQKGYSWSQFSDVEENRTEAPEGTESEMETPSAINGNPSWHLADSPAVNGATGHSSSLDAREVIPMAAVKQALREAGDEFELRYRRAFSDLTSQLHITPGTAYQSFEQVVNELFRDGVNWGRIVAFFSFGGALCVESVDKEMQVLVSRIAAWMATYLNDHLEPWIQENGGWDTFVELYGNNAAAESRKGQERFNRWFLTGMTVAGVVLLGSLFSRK
Apoptosis regulator Bcl-2, sequence (P10415 whole entry): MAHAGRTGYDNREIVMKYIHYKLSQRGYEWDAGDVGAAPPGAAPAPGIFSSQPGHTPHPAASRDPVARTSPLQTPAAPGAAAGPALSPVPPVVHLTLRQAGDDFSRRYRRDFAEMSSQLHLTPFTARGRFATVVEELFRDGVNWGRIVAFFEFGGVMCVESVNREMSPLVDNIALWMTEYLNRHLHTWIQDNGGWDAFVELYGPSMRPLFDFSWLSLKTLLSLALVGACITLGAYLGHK

Turning to `CC1(C)CCC(c2ccc(Cl)cc2)=C(CN2CCN(c3ccc(C(=O)NS(=O)(=O)c4ccc(OCC5(CN6CCOCC6)COC5)c(S(=O)(=O)C(F)(F)F)c4)cc3)CC2)C1`, the IC50 (as a rule, the concentration that gives 50% inhibition) was determined as 14.5 nM in test [1] and 49.3 nM at Bcl-2-like protein 1. The Ratio IC50 in the test listed under Homo sapiens is 3.4.
On to `CC1(C)CCC(c2ccc(Cl)cc2)=C(CN2CCN(c3ccc(C(=O)NS(=O)(=O)c4ccc(N[C@@H](CC5CC5)CN5CCOCC5)c(S(=O)(=O)C(F)(F)F)c4)cc3)CC2)C1`, for which the IC50 in test [1] was 20.7 nM; at Bcl-2-like protein 1 it was 33.5 nM. In addition, in the test filed under Homo sapiens, the Ratio IC50 was 1.62.
On to `CN1CCN(S(=O)(=O)NC(=O)c2ccc(N3CCN(CC4=C(c5ccc(Cl)cc5)CCC(C)(C)C4)CC3)cc2)CC1`, for which the IC50 in test [1] was 168 nM; on Bcl-2-like protein 1, greater than 1000 nM. In addition, the Ratio IC50 in the test listed under Homo sapiens was greater than 5.93.
For `CC1(C)CCC(c2ccc(Cl)cc2)=C(CNC2(Cn3cnc4cc(C(=O)NS(=O)(=O)c5ccc(N[C@H](CCN6CCOCC6)CSc6ccccc6)c(S(=O)(=O)C(F)(F)F)c5)ccc43)CC2)C1`, in that order: 108 nM, 29.3 nM and 0.27.
For `CC1(C)CCC(c2ccc(Cl)cc2)=C(CN2CCc3nc(C(=O)NS(=O)(=O)c4ccc(N[C@H](CCN5CCOCC5)CSc5ccccc5)c(S(=O)(=O)C(F)(F)F)c4)sc3C2)C1`, the IC50 in test [1] came to 38.1 nM; on Bcl-2-like protein 1 it was 13.2 nM. In addition, in the test listed under Homo sapiens, the Ratio IC50 turned out to be 0.35.
For `CN(C)c1ccc(S(=O)(=O)NC(=O)c2ccc(N3CCN(CC4=C(c5ccc(Cl)cc5)CCC(C)(C)C4)CC3)cc2)cc1S(=O)(=O)C(F)(F)F` the same measures were 65.1 nM, 218 nM and 3.34.
For `CC1(C)CCC(c2ccc(Cl)cc2)=C(CN2CCc3sc(C(=O)NS(=O)(=O)c4ccc(N[C@H](CCN5CCOCC5)CSc5ccccc5)c(S(=O)(=O)C(F)(F)F)c4)cc3C2)C1`, the IC50 worked out at 57.9 nM in test [1] and 26.6 nM at Bcl-2-like protein 1. Moreover, the Ratio IC50 in the test filed under Homo sapiens was 0.46.
For `Cn1ccc(S(=O)(=O)NC(=O)c2ccc(N3CCN(CC4=C(c5ccc(Cl)cc5)CCC(C)(C)C4)CC3)cc2)n1`, the IC50 in test [1] is 67.4 nM; on Bcl-2-like protein 1 it was greater than 1000 nM. For the same compound, the Ratio IC50 in the test listed under Homo sapiens was greater than 14.8.
For `CC1(C)CCC(c2ccc(Cl)cc2)=C(CN2CCN(c3ccc(C(=O)NS(=O)(=O)c4ccc(OCC5(CN6CC(F)(F)C6)COC5)c(S(=O)(=O)C(F)(F)F)c4)cc3)CC2)C1`, in that order: 17.3 nM, 105 nM and 6.06.
In the case of `CC1(C)CCC(c2ccc(Cl)cc2)=C(CN2CCc3ccc(C(=O)NS(=O)(=O)c4ccc(N[C@H](CCN5CCOCC5)CSc5ccccc5)c(S(=O)(=O)C(F)(F)F)c4)cc3CC2)C1`, the values for the IC50 (in test [1]; on Bcl-2-like protein 1) were 193 nM and 25.6 nM, respectively. Further, the Ratio IC50 in the test filed under Homo sapiens was 0.13.
For `CC1(C)CCC(c2ccc(Cl)cc2)=C(CN2CCc3cc(C(=O)NS(=O)(=O)c4ccc(N[C@H](CCN5CCOCC5)CSc5ccccc5)c(S(=O)(=O)C(F)(F)F)c4)ccc3C2)C1`, in that order: 12.6 nM, 14.6 nM and 1.15.
As for `CC1(C)CCC(c2ccc(Cl)cc2)=C(CNC2(Cn3cnc4ccc(C(=O)NS(=O)(=O)c5ccc(N[C@H](CCN6CCOCC6)CSc6ccccc6)c(S(=O)(=O)C(F)(F)F)c5)cc43)CC2)C1`, the IC50 (in test [1]; on Bcl-2-like protein 1) was greater than 1000 nM in each case.
`CC1(C)CCC(c2ccc(Cl)cc2)=C(CN2CCN(c3ccc(C(=O)NS(=O)(=O)c4ccc(NC5(CN6CCOCC6)CC5)c(S(=O)(=O)C(F)(F)F)c4)cc3)CC2)C1`: the half-inhibitory concentration (IC50) in test [1] was determined as 40.7 nM; on Bcl-2-like protein 1, 55.3 nM. Moreover, the Ratio IC50 in the test listed under Homo sapiens is 1.36.
For `CC1(C)CCC(c2ccc(Cl)cc2)=C(CN2CCN(c3ccc(C(=O)NS(=O)(=O)c4ccc(N5CC(F)(F)C5)c(S(=O)(=O)C(F)(F)F)c4)cc3)CC2)C1`, in that order: 46.6 nM, 162 nM and 3.48.
For `CC1(C)CCC(c2ccc(Cl)cc2)=C(CN2CCN(c3ccc(C(=O)NS(C)(=O)=O)cc3)CC2)C1` the same measures were 495 nM, greater than 1000 nM and greater than 2.02.
For `CC1(C)CCC(c2ccc(Cl)cc2)=C(CN2CCN(c3ccc(C(=O)NS(=O)(=O)c4ccc(N[C@@H](CC5CC5)C(=O)N5CCOCC5)c(S(=O)(=O)C(F)(F)F)c4)cc3)CC2)C1`, in that order: 68.2 nM, 59.3 nM and 0.87.
For `CC1(C)CCC(c2ccc(Cl)cc2)=C(CN2CCN(c3ccc(C(=O)NS(=O)(=O)c4ccc(NC5(CN6CC(F)(F)C6)CC5)c(S(=O)(=O)C(F)(F)F)c4)cc3)CC2)C1`, the values for the IC50 (in test [1]; at Bcl-2-like protein 1) were 34.8 nM and 342 nM, respectively. Moreover, the Ratio IC50 in the test listed under Homo sapiens turned out to be 9.83.
For `CN(CCO)c1ccc(S(=O)(=O)NC(=O)c2ccc(N3CCN(CC4=C(c5ccc(Cl)cc5)CCC(C)(C)C4)CC3)cc2)cc1S(=O)(=O)C(F)(F)F` the same measures were 46 nM, 116 nM and 2.53.
